Results from US10172549B2, “Methods of facilitating positioning of electrodes” (Cardionomic, Inc., priority 2016, dated 2019).

Test system: right ventricle contractility and left ventricle contractility
Test: Heartbeat-by-heartbeat correlation of right and left ventricle contractility after a change, max(dP/dt) from pressure sensors as surrogate for contractility
Type: in vivo, ovine
Conditions: after injection
Description: The correlation was a heartbeat-by-heartbeat analysis. Pressure measurements, taken by a Millar catheter comprising a MEMS pressure sensor, in units of max(dP/dt) was used as a surrogate for contractility.
The first change, a dobutamine injection, provided a very high contractility increase greater than 500%. The average correlation between right ventricle contractility and left ventricle contractility was very good at 0.91, where 1.00 is a perfect correlation. Accordingly, if a subject is given a dobutamine injection, measuring changes to right ventricle contractility can provide accurate information about changes to left ventricle contractility. The first change was repeated three times.
The second change, calcium injection at 5 mL, provided a contractility increase of about 20%. […] The average correlation between right ventricle contractility and left ventricle contractility using a Millar (MEMS) sensor on a catheter was very good at 0.91. The average correlation between right ventricle contractility and left ventricle contractility using a fluid-filled lumen of a Swan-Ganz catheter in communication with an external pressure sensor was also very good at 0.87. Accordingly, under certain circumstances such as measurement of an animal (normal, non-HF ovine model) model, if a subject is given a calcium injection, measuring changes to right ventricle contractility with a MEMS sensor or a fluid filled lumen can provide accurate information about changes to left ventricle contractility.
The fourth change, neurostimulation as described herein, provided a contractility increase of about 28%. The correlation between right ventricle contractility and left ventricle contractility was very good at 0.90. Accordingly, if a subject is given neurostimulation, measuring changes to right ventricle contractility can provide accurate information about changes to left ventricle contractility. […] Thereafter, the left ventricle contractility tapered off logarithmically or exponentially, but the right ventricle contractility decreased very slowly. These differences help to show why the correlation between left ventricle contractility and right ventricle contractility are poorly correlated for calcium injections. The fourth change was not repeated.

| Molecule | Contractility % Increase | Contractility % Increase (listed as dobutamine injection) | Contractility % Increase (listed as calcium injection) |
| --- | --- | --- | --- |
| CC(CCc1ccc(O)cc1)NCCc1ccc(O)c(O)c1 (stereo not shown) [Dobutamine Injection, dobutamine] | >500% | greater than 500% | – |
| calcium [Calcium Injection] | ~20% | – | about 20% |
